Converted amounts (≈) assume the structure as drawn. Like-named read-outs stand apart in the source and are kept apart here.
Columns and labels:
[1] = Saturation solubility in water; conditions: for solubility: water, thermodynamic from solid; for Water solubility compared to the comparison substances: versus comparison substances of WO0208194
Description: The saturation solubility in water is determined as described below. For incipient dissolution of the substances and to improve wetting of the samples, at most 1% of DMSO is added. To check the content, an HPLC-UV method was used.

[2] = tested on: human glioblastoma cell line SF-268; test: XTT proliferation assay, SF-268; assay type: cell-based; conditions: for EC50: Homo sapiens, read-out: XTT proliferation assay, EC50, SF-268
Description: (§1) The substances according to the invention were investigated for their antiproliferative activity in a proliferation test on established tumor cell lines. The test used determines the cellular dehydrogenase activity and makes possible a determination of the cell vitality and indirectly the cell count. The cell lines used are the human cervical carcinoma cell line KB/HeLa (ATCC CCL17), the ovarian adenocarcinoma cell line SKOV-3 (ATCC HTB77), the human glioblastoma cell line […] (NCI 503138) and the lung carcinoma cell line NCI-H460 (NCI 503473).
(§2) The adherently growing tumor cell lines KB/HeLa, SKOV-3, SF-268 and NCI-H460 were cultured under standard conditions in a fumigation incubator at 37° C., 5% CO2 and 95% atmospheric humidity. On experimental day 1, the cells are detached using trypsin/EDTA and pelleted by centrifugation. Subsequently, the cell pellet is resuspended in the respective culture medium at the corresponding cell count and reacted in a 96-well microtiter plate. The plates are then cultured overnight in the fumigation incubator. The test substances are prepared as 1 mg/ml stock solutions in DMSO and diluted to the appropriate concentrations on experimental day 2 using culture medium. The substances in culture medium are then added to the cells and incubated in the fumigation incubator for 45 h. As a control, cells which are not treated with test substance are used. For the XTT assay, 1 mg/ml of XTT (sodium 3′-[1-(phenylaminocarbonyl)-3,4-tetrazolium]-bis(4-methoxy-6-nitro)benzenesulfonic acid) is dissolved in RPMI-1640 medium without Phenol Red. Additionally, a 0.383 mg/ml PMS (N-methyldibenzopyrazine methylsulfate) solution in phosphate-buffered saline solution (PBS) is prepared. On experimental day 4, 75 μl/well of XTT-PMS mixture is pipetted onto the cell plates which in the meantime have been incubated with the test substances for 45 h. For this, shortly before use, the XTT solution is mixed with the PMS solution in the ratio 50:1 (vol:vol). The cell plates are then incubated in the fumigation incubator for a further 3 h and the optical density (OD490 nm) is determined in a photometer. By means of the OD490 nm determined, the percentage inhibition is calculated relative to the control and plotted semilogarithmically in the form of a concentration-action curve. The EC50 is calculated by means of a regression analysis from the concentration-action curve using the program Graphpad Prism.

[3] = tested on: lung carcinoma cell line NCI-H460; test: XTT proliferation assay, NCI-H460; assay type: cell-based, human; conditions: for EC50: Homo sapiens, read-out: XTT proliferation assay, EC50, NCI-H460
Description: as §1, §2

[4] = tested on: ovarian adenocarcinoma cell line SKOV-3; test: XTT proliferation assay, SKOV-3; assay type: cell-based, human; conditions: for EC50: Homo sapiens, SK-OV-3, read-out: XTT proliferation assay, EC50, SKOV3
Description: as §1, §2

[5] = tested on: human cervical carcinoma cell line KB/HeLa; test: XTT proliferation assay, KB/HeLa; assay type: cell-based; conditions: for EC50: Homo sapiens, read-out: XTT proliferation assay, EC50, KB/Hela
Description: as §1, §2

[6] = NCI-H460 cells, 45 h incubation

Molecule | solubility [1] | EC50 ([2]; SF-268 cells, 45 h incubation) | EC50 [3, 6] | EC50 ([4]; SKOV-3 cells, 45 h incubation) | EC50 ([5]; KB/HeLa cells, 45 h incubation) | also measured
COc1cccc(N2CCN(C(=O)c3c4ccccc4nc4ccccc34)CC2)c1 [Acridin-9-yl-[4-(3-methoxyphenyl)piperazin-1-yl]-methanone, reference compound] | 0.42 µg/mL (≈ 1.06 µM) | – | – | – | – | –
O=C(c1c2ccccc2nc2ccccc12)N1CCN(c2cccc(O)c2)CC1 [Acridin-9-yl-[4-(3-hydroxyphenyl)piperazin-1-yl]methanone, reference compound] | 0.03 µg/mL (≈ 0.0782 µM) | – | – | – | – | –
O=C(Oc1cccc(N2CCN(C(=O)c3c4ccccc4nc4ccccc34)CC2)c1)Oc1cccc(N2CCN(C(=O)c3c4ccccc4nc4ccccc34)CC2)c1 [Compound 19, bis-{3-[4-(Acridin-9-ylcarbonyl)piperazin-1-yl]phenyl}carbonate] | – | 0.025 µg/mL (≈ 0.0315 µM) | 0.026 µg/mL (≈ 0.0328 µM) | 0.013 µg/mL (≈ 0.0164 µM) | 0.02 µg/mL (≈ 0.0252 µM) | –
CN1CCN(C(=O)CCC(=O)Oc2cccc(N3CCN(C(=O)c4c5ccccc5nc5ccccc45)CC3)c2)CC1 [Compound 21, 3-[4-(Acridin-9-ylcarbonyl)piperazin-1-yl]phenyl 4-(4-methylpiperazin-1-yl)-4-oxobutyrate] | 115 µg/mL (≈ 203 µM) | 0.027 µg/mL (≈ 0.0477 µM) | 0.025 µg/mL (≈ 0.0442 µM) | 0.018 µg/mL (≈ 0.0318 µM) | 0.024 µg/mL (≈ 0.0424 µM) | Water solubility compared to the comparison substances [1]: greatly improved water solubilities
Mono-{3-[4-(acridin-9-ylcarbonyl)piperazin-1-yl]phenyl}glutarate [Compound 22] | – | – | – | – | – | XTT proliferation assay, EC50, SF-268 ([2]; SF-268 cells, 45 h incubation): 0.019 µg/mL; XTT proliferation assay, EC50, NCI-H460 [3, 6]: 0.016 µg/mL; XTT proliferation assay, EC50, SKOV3 ([4]; SKOV-3 cells, 45 h incubation): 0.007 µg/mL; XTT proliferation assay, EC50, KB/Hela ([5]; KB/HeLa cells, 45 h incubation): 0.01 µg/mL
O=C(NCCCl)Oc1cccc(N2CCN(C(=O)c3c4ccccc4nc4ccccc34)CC2)c1 [Compound 30, 3-[4-(Acridin-9-ylcarbonyl)piperazin-1-yl]phenyl (2-chloroethyl)carbamate] | – | 0.026 µg/mL (≈ 0.0532 µM) | 0.025 µg/mL (≈ 0.0511 µM) | 0.019 µg/mL (≈ 0.0389 µM) | 0.029 µg/mL (≈ 0.0593 µM) | –
CC(C)NC(=O)Oc1cccc(N2CCN(C(=O)c3c4ccccc4nc4ccccc34)CC2)c1 [Compound 2, 3-[4-(Acridin-9-ylcarbonyl)piperazin-1-yl]phenyl isopropylcarbamate] | – | 0.061 µg/mL (≈ 0.13 µM) | 0.062 µg/mL (≈ 0.132 µM) | 0.039 µg/mL (≈ 0.0832 µM) | 0.051 µg/mL (≈ 0.109 µM) | –
O=C(CCCCOC1C(O)C(O)OC(CO)C1O)Oc1cccc(N2CCN(C(=O)c3c4ccccc4nc4ccccc34)CC2)c1 (centres unmarked) [Compound 26, 3-[4-(Acridin-9-ylcarbonyl)piperazin-1-yl]phenyl 5-(2,3,5-trihydroxy-6-hydroxymethyltetrahydropyran-4-yloxy)pentanoate] | – | 0.047 µg/mL (≈ 0.0728 µM) | 0.054 µg/mL (≈ 0.0836 µM) | 0.026 µg/mL (≈ 0.0403 µM) | 0.042 µg/mL (≈ 0.065 µM) | –
Cc1cccc(N2CCN(C(=O)c3c4ccccc4nc4cc(O)cc(O)c34)CC2)n1 [Compound 1, (1,3-Dihydroxyacridin-9-yl)-[4-(6-methylpyridin-2-yl)piperazin-1-yl]-methanone] | 83.9 µg/mL (≈ 202 µM) | – | – | – | – | Water solubility compared to the comparison substances [1]: greatly improved water solubilities
O=C(c1c2ccccc2nc2ccccc12)N1CCN(c2cccc(OP(=O)(O)O)c2)CC1 [Compound 4, Mono-{3-[4-(acridin-9-ylcarbonyl)piperazin-1-yl]phenyl}phosphate] | – | – | – | – | – | XTT proliferation assay, EC50, SF-268 [2]: 0.140 µg/mL; XTT proliferation assay, EC50, NCI-H460 [3]: 0.272 µg/mL; XTT proliferation assay, EC50, SKOV3 [4]: 0.208 µg/mL; XTT proliferation assay, EC50, KB/Hela [5]: 0.018 µg/mL
CC1(C)OCC(C2OC3OC(C)(C)OC3C2OCCCCC(=O)Oc2cccc(N3CCN(C(=O)c4c5ccccc5nc5ccccc45)CC3)c2)O1 (centres unmarked) [Compound 24, 3-[4-(Acridin-9-ylcarbonyl)piperazin-1-yl]phenyl 5-[5-(2,2-dimethyl-[1,3]-dioxolan-4-yl)-2,2-dimethyltetrahydrofuro[2,3-d][1,3]dioxol-6-yloxy]-pentanoate] | – | 0.048 µg/mL (≈ 0.0661 µM) | 0.072 µg/mL (≈ 0.0992 µM) | 0.023 µg/mL (≈ 0.0317 µM) | 0.04 µg/mL (≈ 0.0551 µM) | –
Cc1cccc(N2CCN(C(=O)c3c4ccccc4nc4ccccc34)CC2)n1 [Acridin-9-yl-[4-(6-methylpyridin-2-yl)piperazin-1-yl]methanone, reference compound] | 1.07 µg/mL (≈ 2.8 µM) | – | – | – | – | –
O=C(CCC(=O)OC1C(O)C(O)OC(CO)C1O)Oc1cccc(N2CCN(C(=O)c3c4ccccc4nc4ccccc34)CC2)c1 (centres unmarked) [Compound 25, 3-[4-(Acridin-9-ylcarbonyl)piperazin-1-yl]phenyl 2,3,5-trihydroxy-6-hydroxymethyltetrahydropyran-4-yl succinate] | 215 µg/mL | 0.029 µg/mL | 0.035 µg/mL | 0.014 µg/mL | 0.019 µg/mL | Water solubility compared to the comparison substances [1]: greatly improved water solubilities
O=C(c1c2ccccc2nc2ccccc12)N1CCN(c2cccc(OP(=O)(O)Oc3cccc(N4CCN(C(=O)c5c6ccccc6nc6ccccc56)CC4)c3)c2)CC1 [Compound 11, bis-{3-[4-(Acridin-9-ylcarbonyl)piperazin-1-yl]phenyl}phosphate] | – | – | – | – | – | XTT proliferation assay, EC50, SF-268 ([2]; SF-268 cells, 45 h incubation): 0.127 µg/mL; XTT proliferation assay, EC50, NCI-H460 [3, 6]: 0.293 µg/mL; XTT proliferation assay, EC50, SKOV3 ([4]; SKOV-3 cells, 45 h incubation): 0.133 µg/mL; XTT proliferation assay, EC50, KB/Hela ([5]; KB/HeLa cells, 45 h incubation): 0.132 µg/mL
O=C(CCC(=O)N(CCO)CCO)Oc1cccc(N2CCN(C(=O)c3c4ccccc4nc4ccccc34)CC2)c1 [Compound 20, 3-[4-(Acridin-9-ylcarbonyl)piperazin-1-yl]phenyl N,N-bis-(2-hydroxy-ethyl)succinate] | – | – | – | – | – | Absolute solubility in water ([1]; saturation solubility, at most 1% DMSO, HPLC-UV): 143.5 µg/mL; Water solubility compared to the comparison substances [1]: greatly improved water solubilities; XTT proliferation assay, EC50, SF-268 ([2]; SF-268 cells, 45 h incubation): 0.021 µg/mL; XTT proliferation assay, EC50, NCI-H460 [3, 6]: 0.027 µg/mL; XTT proliferation assay, EC50, SKOV3 ([4]; SKOV-3 cells, 45 h incubation): 0.014 µg/mL; XTT proliferation assay, EC50, KB/Hela ([5]; KB/HeLa cells, 45 h incubation): 0.023 µg/mL
CC1(C)OCC(C2OC3OC(C)(C)OC3C2OC(=O)CCC(=O)Oc2cccc(N3CCN(C(=O)c4c5ccccc5nc5ccccc45)CC3)c2)O1 (centres unmarked) [Compound 23, 3-[4-(Acridin-9-ylcarbonyl)piperazin-1-y;]phenyl 5-(2,2-dimethyl-[1,3]dioxolan-4-yl)-2,2-dimethyltetrahydrofuro[2,3-d][1,3]dioxol-6-yl succinate] | – | – | – | – | – | XTT proliferation assay, EC50, SF-268 ([2]; SF-268 cells, 45 h incubation): 0.058 µg/mL; XTT proliferation assay, EC50, NCI-H460 [3, 6]: 0.055 µg/mL; XTT proliferation assay, EC50, SKOV3 ([4]; SKOV-3 cells, 45 h incubation): 0.023 µg/mL; XTT proliferation assay, EC50, KB/Hela ([5]; KB/HeLa cells, 45 h incubation): 0.045 µg/mL
O=C(NCCN1CCOCC1)Oc1cccc(N2CCN(C(=O)c3c4ccccc4nc4ccccc34)CC2)c1 [Compound 29, 3-[4-(Acridin-9-ylcarbonyl)piperazin-1-yl]phenyl (2-morpholin-4-yl-ethyl)carbamate] | 41 µg/mL (≈ 76 µM) | 0.024 µg/mL (≈ 0.0445 µM) | 0.027 µg/mL (≈ 0.05 µM) | 0.017 µg/mL (≈ 0.0315 µM) | 0.036 µg/mL (≈ 0.0667 µM) | Water solubility compared to the comparison substances [1]: greatly improved water solubilities

— US20050009809A1, “Acridine derivatives and their use as medicaments” (priority 2003, published 2005)
